Results from ChEMBL document CHEMBL3232777, “QSAR models for HEPT derivates as NNRTI inhibitors based on Monte Carlo method” (Eur J Med Chem, 2014).

Test system: Human immunodeficiency virus 1
Experiment: Antiviral activity against HIV1 3B infected in human MT4 cells assessed as protection from cytopathic effect
Assay type: functional, organism-based
Conditions: Human immunodeficiency virus 1, 3B

Row | Compound | IC50 [µM]
1 | Cc1c(Sc2ccc(Cl)cc2)n(COCCO)c(=O)[nH]c1=O | 251
2 | Cc1c(Sc2cccc(CO)c2)n(COCCO)c(=O)[nH]c1=O | 295
3 | Cc1c(Sc2cc(Cl)cc(Cl)c2)n(COCCO)c(=O)[nH]c1=O | 1.29
4 | Cc1c(Sc2ccc(C#N)cc2)n(COCCO)c(=O)[nH]c1=O | 251
5 | Cc1c(Sc2ccccc2Cl)n(COCCO)c(=O)[nH]c1=O | 129
6 | CC(=O)c1ccc(Sc2c(C)c(=O)[nH]c(=O)n2COCCO)cc1 | 110
7 | Cc1c(Sc2ccc([N+](=O)[O-])cc2)n(COCCO)c(=O)[nH]c1=O | 191
8 | O=c1[nH]c(=O)n(COCCO)c(Sc2ccccc2)c1Sc1ccccc1 | 20.9
9 | COc1ccc(Sc2c(C)c(=O)[nH]c(=O)n2COCCO)cc1 | 251
10 | CC(=O)c1cccc(Sc2c(C)c(=O)[nH]c(=O)n2COCCO)c1 | 7.24
11 | O=C(Nc1ccccc1)c1c(Sc2ccccc2)n(COCCO)c(=O)[nH]c1=O | 18.2
12 | Cc1c(Sc2ccc(O)cc2)n(COCCO)c(=O)[nH]c1=O | 275
13 | Cc1c(Sc2ccc(F)cc2)n(COCCO)c(=O)[nH]c1=O | 251
14 | O=c1[nH]c(=O)n(COCCO)c(Sc2ccccc2)c1C#Cc1ccccc1 | 3.39
15 | C=Cc1c(Sc2ccccc2)n(COCCO)c(=O)[nH]c1=O | 2.04
16 | Cc1c(Sc2cccc(C(=O)O)c2)n(COCCO)c(=O)[nH]c1=O | 355
17 | O=c1[nH]c(=O)n(COCCO)c(Sc2ccccc2)c1C=C(c1ccccc1)c1ccccc1 | 0.851
18 | C#Cc1c(Sc2ccccc2)n(COCCO)c(=O)[nH]c1=O | 18.2
19 | O=c1[nH]c(=O)n(COCCO)c(Sc2ccccc2)c1I | 3.63
20 | O=c1[nH]c(=O)n(COCCO)c(Sc2ccccc2)c1/C=C/c1ccccc1 | 6.03
21 | CCc1c(Sc2ccccc2)n(COCC2CCCCC2)c(=O)[nH]c1=O | 0.447
22 | CCc1c(Sc2ccccc2)n(COCCc2ccccc2)c(=O)[nH]c1=O | 0.0955
23 | CC(C)c1c(Sc2ccccc2)n(COCc2ccccc2)c(=S)[nH]c1=O | 0.00724
24 | CCOCn1c(Sc2ccccc2)c(C(C)C)c(=O)[nH]c1=S | 0.0129
25 | CCc1c(Sc2ccccc2)n(COCc2ccccc2)c(=S)[nH]c1=O | 0.00813
26 | CCc1c(Sc2ccccc2)n(COCCc2ccccc2)c(=S)[nH]c1=O | 0.0912

Row | Compound | IC50 [µM]
27 | CCc1c(Sc2ccccc2)n(COCc2ccc(C)cc2)c(=S)[nH]c1=O | 0.0776
28 | CCc1c(Sc2cc(C)cc(C)c2)n(COCc2ccccc2)c(=S)[nH]c1=O | 0.00724
29 | CCOCn1c(Sc2cc(C)cc(C)c2)c(CC)c(=O)[nH]c1=O | 0.00575
30 | CCc1c(Sc2ccccc2)n(COCC2CCCCC2)c(=S)[nH]c1=O | 0.355
31 | CCCCOCn1c(Sc2ccccc2)c(C)c(=O)[nH]c1=O | 4.68
32 | CCCCCOCCOCn1c(Sc2ccccc2)c(C)c(=O)[nH]c1=O | 34.7
33 | CCc1c(Sc2ccccc2)n(COC(C)C)c(=O)[nH]c1=O | 0.339
34 | Cc1cccc(Sc2c(C)c(=O)[nH]c(=O)n2COCCO)c1 | 2.57
35 | Cc1c(Sc2cccc(I)c2)n(COCCO)c(=O)[nH]c1=O | 10
36 | Cc1ccc(Sc2c(C)c(=O)[nH]c(=O)n2COCCO)cc1 | 219
37 | COC(=O)c1cccc(Sc2c(C)c(=O)[nH]c(=O)n2COCCO)c1 | 7.94
38 | CCc1c(Sc2cc(C)cc(C)c2)n(COCCO)c(=S)[nH]c1=O | 0.00776
39 | Cc1c(Sc2cccc([N+](=O)[O-])c2)n(COCCO)c(=O)[nH]c1=O | 33.9
40 | CCCc1c(Sc2ccccc2)n(COCCO)c(=O)[nH]c1=O | 3.39
41 | CCc1c(Sc2cc(Cl)cc(Cl)c2)n(COCCO)c(=S)[nH]c1=O | 0.0427
42 | COc1cccc(Sc2c(C)c(=O)[nH]c(=O)n2COCCO)c1 | 21.9
43 | Cc1cc(C)cc(Sc2c(C(C)C)c(=O)[nH]c(=S)n2COCCO)c1 | 0.00501
44 | Cc1c(Sc2ccccc2[N+](=O)[O-])n(COCCO)c(=O)[nH]c1=O | 141
45 | C=CCc1c(Sc2ccccc2)n(COCCO)c(=O)[nH]c1=O | 2.51
46 | CC(C)c1c(Sc2ccccc2)n(COCCO)c(=O)[nH]c1=O | 0.0631
47 | Cc1c(Sc2cccc(C(C)(C)C)c2)n(COCCO)c(=O)[nH]c1=O | 12
48 | CC(C)c1c(Sc2ccccc2)n(COCCO)c(=S)[nH]c1=O | 0.0589
49 | Cc1c(Sc2cccc(F)c2)n(COCCO)c(=O)[nH]c1=O | 3.31
50 | COc1ccccc1Sc1c(C)c(=O)[nH]c(=O)n1COCCO | 19.1
51 | CCc1c(Sc2ccccc2)n(COCCO)c(=O)[nH]c1=O | 0.12
52 | Cc1cc(C)cc(Sc2c(C)c(=O)[nH]c(=S)n2COCCO)c1 | 0.219

Row | Compound | IC50 [µM]
53 | Cc1c(Sc2cccc(C#N)c2)n(COCCO)c(=O)[nH]c1=O | 10
54 | Cc1c(Sc2cccc(O)c2)n(COCCO)c(=O)[nH]c1=O | 81.3
55 | Cc1c(Sc2cccc(Br)c2)n(COCCO)c(=O)[nH]c1=O | 5.75
56 | Cc1ccccc1Sc1c(C)c(=O)[nH]c(=O)n1COCCO | 70.8
57 | Cc1c(Sc2ccccc2)n(COCCF)c(=O)[nH]c1=O | 1.1
58 | CCc1c(Sc2ccccc2)n(COCc2ccccc2)c(=O)[nH]c1=O | 0.00589
59 | CCCCn1c(Sc2ccccc2)c(C)c(=O)[nH]c1=O | 1.2
60 | Cc1c(O)nc(O)nc1Sc1ccccc1 | 251
61 | Cc1c(Sc2ccccc2)n(C)c(=O)[nH]c1=O | 151
62 | CCc1c(Sc2cc(C)cc(C)c2)n(COCc2ccccc2)c(=O)[nH]c1=O | 0.00282
63 | O=c1[nH]c(=O)n(COCCO)c(Sc2ccccc2)c1Cl | 30.2
64 | O=c1[nH]c(=O)n(COCCO)c(Sc2ccccc2)c1Br | 20
65 | CCc1c(Sc2ccccc2)n(COC(C)C)c(=S)[nH]c1=O | 0.219
66 | CCc1c(Sc2ccccc2)n(COCCO)c(=S)[nH]c1=O | 0.11
67 | CC(=O)OCCOCn1c(Sc2ccccc2)c(C)c(=O)[nH]c1=O | 6.76
68 | Cc1c(Sc2ccccc2)n(COCCOC(=O)c2ccccc2)c(=O)[nH]c1=O | 7.59
69 | Cc1c(Sc2cccc(N)c2)n(COCCO)c(=O)[nH]c1=O | 251
70 | Cc1c(Sc2ccccc2)n(COCCO)c(=S)[nH]c1=O | 0.977
71 | COC(=O)c1c(Sc2ccccc2)n(COCCO)c(=O)[nH]c1=O | 6.61
72 | Cc1c(Sc2cccc(C(N)=O)c2)n(COCCO)c(=O)[nH]c1=O | 309
73 | CC(C)C(=O)c1c(Sc2ccccc2)n(COCCO)c(=O)[nH]c1=O | 12
74 | CCOCn1c(Sc2ccccc2)c(C2CC2)c(=O)[nH]c1=S | 0.0955
75 | CCc1c(Sc2ccccc2)n(COCc2ccc(Cl)cc2)c(=S)[nH]c1=O | 0.012
76 | CCc1c(Sc2ccccc2)n(COC2CCCCC2)c(=S)[nH]c1=O | 1.62
77 | CCOCn1c(Sc2cc(Cl)cc(Cl)c2)c(CC)c(=O)[nH]c1=O | 0.00741
78 | CCOCn1c(Sc2cc(C)cc(C)c2)c(CC)c(=O)[nH]c1=S | 0.00501

Row | Compound | IC50 [µM]
79 | CCOCn1c(Sc2cc(Cl)cc(Cl)c2)c(CC)c(=O)[nH]c1=S | 0.0129
80 | CCc1c(Sc2ccccc2)n(COC2CCCCC2)c(=O)[nH]c1=O | 3.98
81 | Cc1c(Sc2ccccc2)n(COCCOCc2ccccc2)c(=O)[nH]c1=O | 20
82 | Cc1c(Sc2ccccc2)n(COCCCl)c(=O)[nH]c1=O | 1.51
83 | CCOCn1c(Sc2ccccc2)c(CC)c(=O)[nH]c1=O | 0.0191
84 | Cc1c(Sc2ccccc2)n(COCc2ccccc2)c(=O)[nH]c1=O | 0.0871
85 | CCOCn1c(Sc2ccccc2)c(C)c(=O)[nH]c1=O | 0.331
86 | COCCOCn1c(Sc2ccccc2)c(C)c(=O)[nH]c1=O | 8.71
87 | Cc1c(Sc2ccccc2)n(COCCN=[N+]=[N-])c(=O)[nH]c1=O | 5.75
88 | CCOCn1c(Sc2ccccc2)c(C(C)C)c(=O)[nH]c1=O | 0.0102
89 | CCn1c(Sc2ccccc2)c(C)c(=O)[nH]c1=O | 2.19
90 | CC(C)c1c(Sc2ccccc2)n(COCc2ccccc2)c(=O)[nH]c1=O | 0.00309
91 | COCn1c(Sc2ccccc2)c(C)c(=O)[nH]c1=O | 2.09
92 | CCOCn1c(Sc2ccccc2)c(C2CC2)c(=O)[nH]c1=O | 0.1
93 | CCCOCn1c(Sc2ccccc2)c(C)c(=O)[nH]c1=O | 3.31
94 | CCCc1c(Sc2ccccc2)n(COCCO)c(=S)[nH]c1=O | 10
95 | CCc1cccc(Sc2c(C)c(=O)[nH]c(=O)n2COCCO)c1 | 2.69
96 | Cc1c(Sc2cccc(Cl)c2)n(COCCO)c(=O)[nH]c1=O | 12.9
97 | O=C(c1ccccc1)c1c(Sc2ccccc2)n(COCCO)c(=O)[nH]c1=O | 12.9
98 | O=c1[nH]c(=O)n(COCCO)c(Sc2ccccc2)c1F | 100
99 | CCOCn1c(Sc2ccccc2)c(CC)c(=O)[nH]c1=S | 0.0263
100 | CCc1c(Sc2cc(Cl)cc(Cl)c2)n(COCCO)c(=O)[nH]c1=O | 0.0141
101 | Cc1c(Sc2cccc(C(F)(F)F)c2)n(COCCO)c(=O)[nH]c1=O | 44.7
102 | O=c1[nH]c(=O)n(COCCO)c(Sc2ccccc2)c1Cc1ccccc1 | 42.7
103 | CC#Cc1c(Sc2ccccc2)n(COCCO)c(=O)[nH]c1=O | 19.1
